Reference: patent US7270949B2, “Fluorescence based T-type channel assay” (Neuromed Pharmaceuticals Ltd., priority 2003, dated 2007)

Legend:
[1] = system: membrane potential of cells; experiment: Membrane potential of cells with gramicidin, NMDG substituted for external sodium (FIG. 3); type: cell-based; conditions: 5 μg/ml gramicidin, absence of external sodium (NMDG)
Description: As shown, when 5 μg/ml gramicidin is added in the absence of external sodium, the membrane potential decreases to about −70 mV.

[2] = system: α1 subunit of T-type calcium channels; experiment: Fluorescence based assay for T-type modulators (FLUO-4, gramicidin/NMDG, KCl pulse); type: cell-based; conditions: transfected HEK 293 cells; various concentrations; FIG. 5; positive control
Description: Mammalian cell lines stably expressing α1 subunit of T-type calcium channels were constructed by transfecting α1 calcium channel subunit DNA into HEK 293 cells and selecting for antibiotic resistance. Briefly, a full-length T-type calcium channel α1 subunit was subcloned into an expression vector with a selectable marker, pcDNA3 (InvitroGen, San Diego, Calif.). The vector was transfected into HEK 293 cells by lipofection and the cells incubated for 16-20 hours. The cells were fed nonselective medium and incubated for an additional 24 hours, then trypsinized and plated at low density in selective medium supplemented with Geneticin (G418) at a concentration of between 600 to 800 μg/ml. […] After growing up each isolated colony to confluency to establish cell lines, the expression of T-type calcium channels was determined by Northern and Southern blotting. […]
Each well was then treated with fluorescence dye solution containing a mixture of 50 μg FLUO-4 AM (Molecular Probes, F-14201); 45.5 μl DMSO; 45.5 μl 20% Pluronic F-127 (Molecular Probes, P-6867) and 4 ml MKH buffer. […]
To each well, EB buffer was added also containing DMSO at a concentration equal to that of the test compounds for negative controls, the known blocker penfluoridol at 2.5 μM for positive control, and test compounds (diluted in DMSO) for experimental wells. […] Background fluorescence was read in all wells. […]

| Compound | membrane potential [1] | blocking calcium ion transport (fluorescence) [2] |
| --- | --- | --- |
| gramicidin | about −70 mV | – |
| OC1(c2ccc(Cl)c(C(F)(F)F)c2)CCN(CCCC(c2ccc(F)cc2)c2ccc(F)cc2)CC1 [penfluoridol] | – | successful in blocking calcium ion transport |
